Data reported in patent US20090048258A1, “Amide Compound” (priority 2005, published 2009).

What follows are compounds tested against T1, Human DGAT1 (Homo sapiens, UniProt O75907) (assay: DGAT inhibitory activity: [14C]-triglyceride synthesis by DGAT1 high expression Sf9 microsome). Conditions: Table 1, 25 μM dioleoylglycerol, 25 μM [14C]-Oleoyl-CoA, 32° C., 15 min, read-out: DGAT inhibitory activity (according to IC50).
T1 construct: my translation of the primer: M-G-DYKDDDD-GDRGSSRRR) (N); made in house; host or cells: Sf9 insect cells (recombinant baculovirus BAC-DGAT1, pFASTBAC1); microsome fraction
T1 sequence (O75907 1-488): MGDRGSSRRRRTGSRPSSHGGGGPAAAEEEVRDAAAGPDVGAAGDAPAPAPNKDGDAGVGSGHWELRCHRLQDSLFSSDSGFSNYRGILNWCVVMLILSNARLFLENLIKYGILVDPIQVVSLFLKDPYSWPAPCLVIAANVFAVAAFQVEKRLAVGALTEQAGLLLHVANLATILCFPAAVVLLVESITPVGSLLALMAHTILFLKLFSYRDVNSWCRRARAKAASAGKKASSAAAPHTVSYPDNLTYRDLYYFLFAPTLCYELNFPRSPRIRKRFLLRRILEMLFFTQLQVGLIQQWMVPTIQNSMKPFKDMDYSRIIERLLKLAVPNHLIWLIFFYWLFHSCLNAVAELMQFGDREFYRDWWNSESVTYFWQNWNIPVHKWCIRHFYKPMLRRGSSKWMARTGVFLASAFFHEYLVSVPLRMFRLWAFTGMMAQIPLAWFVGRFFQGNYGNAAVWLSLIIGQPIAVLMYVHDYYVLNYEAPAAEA
Format: biochemical
Method in brief: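 DGAT1 was overexpressed from recombinant baculovirus in Sf9 cells, and microsomes from these cells were the enzyme source. Reactions ran in 100 mM Tris-HCl pH 7.5, 250 mM sucrose, 150 mM MgCl2 and 0.01% BSA. [14C]-triglyceride was extracted into chloroform, separated by TLC and quantified by imaging plate, with inhibition calculated against control and blank (no microsome) counts.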

Structure (SMILES)	IC50
CCCCc1sc(NC(=O)CCC(=O)c2ccc(OCC)c(OCC)c2)cc1-c1ccccc1 [Example 58, N-(5-butyl-4-phenyl-2-thienyl)-4-(3,4-diethoxyphenyl)-4-oxobutanamide]	50 to 500 nM
CCOc1ccc(C(=O)CCC(=O)Nc2ccc(CN3CCOCC3)c(-c3ccccc3)c2)cc1OCC [Example 39, 4-(3,4-diethoxyphenyl)-N-(6-(morpholin-4-ylmethyl)biphenyl-3-yl]-4-oxobutanamide]	500 to 10000 nM
O=C(CCC(=O)c1ccc(OC(F)(F)F)cc1)Nc1nc(-c2ccccc2)c(Cc2ccccc2)s1 [Example 28, N-(5-benzyl-4-phenyl-1,3-thiazol-2-yl)-4-oxo-4-[4-(trifluoromethoxy)phenyl]butanamide]	50 to 500 nM
CCOC(=O)/C=C/c1cc(C(=O)CCC(=O)Nc2nc(-c3ccccc3)c(Cc3ccccc3)s2)ccc1OCC [Example 30, ethyl (2E)-3-(5-{4-[(5-benzyl-4-phenyl-1,3-thiazol-2-yl)amino]-4-oxobutanoyl}-2-ethoxyphenyl)acrylate]	10 to 50 nM
CCOc1ccc(C(=O)CCC(=O)Nc2nc(-c3ccccc3)c(Cc3ccccc3)s2)cc1/C=C/C(=O)O [Example 31, (2E)-3-(5-{4-[(5-benzyl-4-phenyl-1,3-thiazol-2-yl)amino]-4-oxobutanoyl}-2-ethoxyphenyl)acrylic acid]	50 to 500 nM
CCOc1ccc(C(=O)CCC(=O)Nc2cc(-c3ccccc3)cc(-c3ccccc3)c2)cc1OCC [Example 8, 4-(3,4-diethoxyphenyl)-4-oxo-N-(1,1′:3′,1″-terphenyl-5′-yl)butanamide]	50 to 500 nM

Same assay, conditions: Table 2, 25 μM dioleoylglycerol, 25 μM [14C]-Oleoyl-CoA, 32° C., 15 min, read-out: DGAT inhibitory activity (according to IC50)

Structure (SMILES)	IC50
CCOc1ccc(C(=O)CCC(=O)Nc2cc(-c3ccc(OCCN4CCOCC4)cc3)c3ccccc3n2)cc1OCC [Example 90, 4-(3,4-diethoxyphenyl)-N-{4-[4-(2-(morpholin-4-yl)ethoxy)phenyl]quinolin-2-yl}-4-oxobutanamide]	50 to 500 nM
O=C(CCC(=O)c1ccc2c(c1)CCO2)Nc1cc(-c2ccccc2CO)cc(-c2ccccc2)n1 [Example 179, 4-(2,3-dihydro-1-benzofuran-5-yl)-N-{4-[2-(hydroxymethyl)phenyl]-6-phenylpyridin-2-yl}-4-oxobutanamide]	50 to 500 nM
CCOc1ccc(C(=O)CCC(=O)Nc2cc(-c3ccc(N(C)C)cc3)cc(-c3ccccc3)n2)cc1OCC [Example 131, 4-(3,4-diethoxyphenyl)-N-{4-[4-(dimethylamino)phenyl]-6-phenylpyridin-2-yl}-4-oxobutanamide]	50 to 500 nM
COC(=O)c1cccc(-c2cc(NC(=O)CCC(=O)c3ccc4c(c3)CCO4)nc(-c3ccccc3)c2)c1 [Example 170, methyl 3-(2-{[4-(2,3-dihydro-1-benzofuran-5-yl)-4-oxobutanoyl]amino}-6-phenylpyridin-4-yl)benzoate]	500 to 10000 nM
N#Cc1cccc(-c2cc(NC(=O)CCC(=O)c3ccc4c(c3)CCO4)nc(-c3ccccc3)c2)c1 [Example 163, N-[4-(3-cyanophenyl)-6-phenylpyridin-2-yl]-4-(2,3-dihydro-1-benzofuran-5-yl)-4-oxobutanamide]	50 to 500 nM
O=C(CCC(=O)c1ccc2c(c1)CCCC2)Nc1cc(-c2ccccc2)c2cc(Cl)ccc2n1 [Example 75, N-(6-chloro-4-phenylquinolin-2-yl)-4-oxo-4-(5,6,7,8-tetrahydronaphthalen-2-yl)butanamide]	50 to 500 nM
CCOc1ccc(C(=O)CCC(=O)Nc2cc(-c3cc(OC)c(OC)c(OC)c3)cc(-c3ccccc3)n2)cc1OCC [Example 150, 4-(3,4-diethoxyphenyl)-4-oxo-N-[6-phenyl-4-(3,4,5-trimethoxyphenyl)pyridin-2-yl]butanamide]	500 to 10000 nM
CCOc1ccc(C(=O)CCC(=O)Nc2cc(-c3cccc(CC#N)c3)cc(-c3ccccc3)n2)cc1OCC [Example 133, N-{4-[3-(cyanomethyl)phenyl]-6-phenylpyridin-2-yl}-4-(3,4-diethoxyphenyl)-4-oxobutanamide]	10 to 50 nM
CCOc1ccc(C(=O)CCC(=O)Nc2cc(-c3cccc(C(=O)O)c3)cc(-c3ccccc3)n2)cc1OCC [Example 138, 3-(2-{[4-(3,4-diethoxyphenyl)-4-oxobutanoyl]amino}-6-phenylpyridin-4-yl)benzoic acid]	500 to 10000 nM
CCOc1ccc(C(=O)CCC(=O)Nc2cc(-c3ccc(CCC(=O)O)cc3)cc(-c3ccccc3)n2)cc1OCC [Example 125, 3-[4-(2-{[4-(3,4-diethoxyphenyl)-4-oxobutanoyl]amino}-6-phenylpyridin-4-yl)phenyl]propanoic acid]	500 to 10000 nM
CCOc1ccc(C(=O)CCC(=O)Nc2cc(-c3ccc(C(N)=O)cc3)cc(-c3ccccc3)n2)cc1OCC [Example 128, 4-(2-{[4-(3,4-diethoxyphenyl)-4-oxobutanoyl]amino}-6-phenylpyridin-4-yl)benzamide]	10 to 50 nM
COC(=O)CCc1cccc(-c2cc(NC(=O)CCC(=O)c3ccc4c(c3)CCO4)nc(-c3ccccc3)c2)c1 [Example 173, methyl 3-[3-(2-{[4-(2,3-dihydro-1-benzofuran-5-yl)-4-oxobutanoyl]amino}-6-phenylpyridin-4-yl)phenyl]propanoate]	10 to 50 nM
CCOc1ccc(C(=O)CCC(=O)Nc2cc(-c3ccc4c(c3)OCO4)cc(-c3ccccc3)n2)cc1OCC [Example 120, N-[4-(1,3-benzodioxol-5-yl)-6-phenylpyridin-2-yl]-4-(3,4-diethoxyphenyl)-4-oxobutanamide]	50 to 500 nM
CCOc1ccc(C(=O)CCC(=O)Nc2nc3ccccc3c(-c3ccccc3)c2C)cc1OCC [Example 88, 4-(3,4-diethoxyphenyl)-N-(3-methyl-4-phenylquinolin-2-yl)-4-oxobutanamide]	50 to 500 nM
CCOc1ccc(C(=O)CCC(=O)Nc2cc(-c3ccccc3)c3ccc(CCC(=O)OC(C)(C)C)cc3n2)cc1OCC [Example 87, tert-butyl 3-(2-{[4-(3,4-diethoxyphenyl)-4-oxobutanoyl]amino}-4-phenylquinoline-7-yl)propanoate]	10 to 50 nM
O=C(CCC(=O)c1ccc2c(c1)CCO2)Nc1cc(-c2cccnc2)cc(-c2ccccc2)n1 [Example 114, 4-(2,3-dihydro-1-benzofuran-5-yl)-4-oxo-N-(6′-phenyl-3,4′-bipyridine-2′-yl)butanamide]	50 to 500 nM
Cc1cc(-c2cc(NC(=O)CCC(=O)c3ccc4c(c3)CCO4)nc(-c3ccccc3)c2)cc(C)c1O [Example 183, 4-(2,3-dihydro-1-benzofuran-5-yl)-N-[4-(4-hydroxy-3,5-dimethylphenyl)-6-phenylpyridin-2-yl]-4-oxobutanamide]	50 to 500 nM
O=C(CCC(=O)c1ccc2c(c1)CCCC2)Nc1cc(-c2ccccc2)cc(-c2ccccc2)n1 [Example 105, N-(4,6-diphenylpyridin-2-yl)-4-oxo-4-(5,6,7,8-tetrahydronaphthalen-2-yl)butanamide]	50 to 500 nM
CCOc1ccc(C(=O)CCC(=O)Nc2cc(-c3ccc(O)c(OC)c3)cc(-c3ccccc3)n2)cc1OCC [Example 149, 4-(3,4-diethoxyphenyl)-N-[4-(4-hydroxy-3-methoxyphenyl)-6-phenylpyridin-2-yl]-4-oxobutanamide]	10 to 50 nM
CCOc1ccc(C(=O)CCC(=O)Nc2cc(-c3ccc(CO)cc3)cc(-c3ccccc3)n2)cc1OCC [Example 124, 4-(3,4-diethoxyphenyl)-N-{4-[4-(hydroxymethyl)phenyl]-6-phenylpyridin-2-yl}-4-oxobutanamide]	10 to 50 nM
COc1cc(-c2cc(NC(=O)CCC(=O)c3ccc4c(c3)CCO4)nc(-c3ccccc3)c2)cc(OC)c1OC [Example 182, 4-(2,3-dihydro-1-benzofuran-5-yl)-4-oxo-N-[6-phenyl-4-(3,4,5-trimethoxyphenyl)pyridin-2-yl]butanamide]	500 to 10000 nM
CCOc1ccc(C(=O)CCC(=O)Nc2cc(-c3ccccc3Cl)nn2-c2ccc(C)cc2)cc1OCC [Example 101, N-[3-(2-chlorophenyl)-1-(4-methylphenyl)-1H-pyrazol-5-yl]-4-(3,4-diethoxyphenyl)-4-oxobutanamide]	500 to 10000 nM
CCOc1cccc(C(=O)CCC(=O)Nc2cc(-c3ccccc3)cc(-c3ccccc3)n2)c1 [Example 103, N-(4,6-diphenylpyridin-2-yl)-4-(3-ethoxyphenyl)-4-oxobutanamide]	500 to 10000 nM
CCOc1ccc(C(=O)CCC(=O)Nc2cc(-c3ccccc3C(=O)O)cc(-c3ccccc3)n2)cc1OCC [Example 148, 2-(2-{[4-(3,4-diethoxyphenyl)-4-oxobutanoyl]amino}-6-phenylpyridin-4-yl)benzoic acid]	500 to 10000 nM
CCOc1ccc(C(=O)CCC(=O)Nc2cc(-c3ccc(OCCNC(=O)OC(C)(C)C)cc3)c3ccccc3n2)cc1OCC [Example 92, tert-butyl {2-[4-(2-{[4-(3,4-diethoxyphenyl)-4-oxobutanoyl]amino}quinolin-4-yl)phenoxy]ethyl}carbamate]	50 to 500 nM
CCOc1ccc(C(=O)CCC(=O)Nc2cc(-c3ccccc3)cc(Cc3ccccc3)n2)cc1OCC [Example 95, N-(6-benzyl-4-phenylpyridin-2-yl)-4-(3,4-diethoxyphenyl)-4-oxobutanamide]	50 to 500 nM
